Assay results from patent US20060286130A1, “Sterile gelling agents” (priority 2005, published 2006).

Tests used:
[1] = Sterilization by gamma irradiation, appearance / degradation of the gelling agent; format: physicochemical; conditions: 25 KGy, 60Cobalt source
Excerpt: In an additional embodiment of the invention, the sterile dried bulk gelling agent is subjected to sterilization by gamma irradiation. […] Other materials in the gelled polymeric dispersion can be processed by other techniques as described above and generally known in the art of preparation of sterile dosage forms.
Sorbitan monostearate prepared in Example 1 was exposed to gamma irradiation at a dose of 25 KGy using a ^60Cobalt source at a contract irradiation laboratory. A dose of 25 KGy is accepted internationally to be sufficient to ensure sterility (British Pharmacopoeia).

[2] = Sterilization by dry heat, appearance of the material; format: physicochemical; conditions: 180° C. for 2 hours
Method: Sorbitan monostearate (Sanyo, Japan) was subjected to sterilization by dry heat at a temperature of 180° C. for 2 hours. […] The material thus obtained though it would pass the test for sterility renders the final product unacceptable for pharmiaceutical use because of the dark brown color it imparts.

Substance	change in appearance after gamma irradiation [1]	appearance after sterilization by dry heat [2]
Sorbitan monostearate [listing 1 of 2 here]	no change in appearance	–
Sorbitan monostearate [listing 2 of 2 here]	–	dark brown colored mass
